The text below walks through data of PubChem BioAssay AID1259407 (Chemical Carcinogenesis Research Information System (CCRIS), 2018).

The source made the active and inactive calls. No rule for the calls is given here.

The data set relates to CCRIS mutagenicity, Ames/micronucleus/aberration tests. The experiment in a line: CCRIS mutagenicity studies.
The mark [1] stands for this setting: Test System: AMES SALMONELLA TYPHIMURIUM, Strain/Indicator: TA98, Metabolic Activation: NONE, Method: PREINCUBATION
Where [2] appears, read: Test System: AMES SALMONELLA TYPHIMURIUM, Strain/Indicator: TA100, Metabolic Activation: NONE, Method: PREINCUBATION
The mark [3] stands for this setting: Test System: AMES SALMONELLA TYPHIMURIUM, Strain/Indicator: TA1535, Metabolic Activation: NONE, Method: PREINCUBATION
Setting [4] is: Test System: AMES SALMONELLA TYPHIMURIUM, Strain/Indicator: TA1537, Metabolic Activation: NONE, Method: PREINCUBATION

For `CNCCO`, the mutagenic call is, setting by setting: (Test System: AMES SALMONELLA TYPHIMURIUM, Strain/Indicator: TA98, Metabolic Activation: HAMSTER, LIVER, S-9, AROCLOR 1254 (10%), Method: PREINCUBATION) “inactive; negative”; under setting [1], “inactive; negative”; (Test System: AMES SALMONELLA TYPHIMURIUM, Strain/Indicator: TA98, Metabolic Activation: RAT, LIVER, S-9, AROCLOR 1254 (10%), Method: PREINCUBATION) “inactive; negative”; (Test System: AMES SALMONELLA TYPHIMURIUM, Strain/Indicator: TA100, Metabolic Activation: HAMSTER, LIVER, S-9, AROCLOR 1254 (10%), Method: PREINCUBATION) “inactive; negative”; under setting [2], “inactive; negative”; (Test System: AMES SALMONELLA TYPHIMURIUM, Strain/Indicator: TA100, Metabolic Activation: RAT, LIVER, S-9, AROCLOR 1254 (10%), Method: PREINCUBATION) “inactive; negative”. Besides, the mutagenic call was “inactive; negative” (Test System: AMES SALMONELLA TYPHIMURIUM, Strain/Indicator: TA1535, Metabolic Activation: HAMSTER, LIVER, S-9, AROCLOR 1254 (10%), Method: PREINCUBATION); “inactive; negative” under setting [3]; “inactive; negative” (Test System: AMES SALMONELLA TYPHIMURIUM, Strain/Indicator: TA1535, Metabolic Activation: RAT, LIVER, S-9, AROCLOR 1254 (10%), Method: PREINCUBATION); “inactive; negative” (Test System: AMES SALMONELLA TYPHIMURIUM, Strain/Indicator: TA1537, Metabolic Activation: HAMSTER, LIVER, S-9, AROCLOR 1254 (10%), Method: PREINCUBATION); “inactive; negative” under setting [4]; “inactive; negative” (Test System: AMES SALMONELLA TYPHIMURIUM, Strain/Indicator: TA1537, Metabolic Activation: RAT, LIVER, S-9, AROCLOR 1254 (10%), Method: PREINCUBATION).

On to `CCCCN(C[C@@H](CO)OCc1ccccc1)N=O`, for which the mutagenic call under setting [2] was “active; positive” and the mutagenic call (Test System: AMES SALMONELLA TYPHIMURIUM, Strain/Indicator: TA100, Metabolic Activation: RAT, LIVER, S-9, PCB, Method: PREINCUBATION) was “active; positive”.

In the case of `CC1COc2c(N3CCN(C)CC3)c(F)cc3c(=O)c(C(=O)O)cn1c23` (stereo unspecified), the mutagenic call reads like this: (End Point: AMES SALMONELLA TYPHIMURIUM, Test System: TA98, Metabolic Activation: NONE, Method: STANDARD PLATE) “active; positive”; (End Point: AMES SALMONELLA TYPHIMURIUM, Test System: TA100, Metabolic Activation: NONE, Method: STANDARD PLATE) “inactive; negative”; (Test System: AMES SALMONELLA TYPHIMURIUM, Strain/Indicator: HISG428, Metabolic Activation: NONE, Method: STANDARD PLATE) “inactive; negative”; (Test System: AMES SALMONELLA TYPHIMURIUM, Strain/Indicator: TA92, Metabolic Activation: NONE, Method: STANDARD PLATE) “active; positive”; (Test System: AMES SALMONELLA TYPHIMURIUM, Strain/Indicator: TA102, Metabolic Activation: NONE, Method: STANDARD PLATE) “active; positive”; (Test System: AMES SALMONELLA TYPHIMURIUM, Strain/Indicator: TA103, Metabolic Activation: NONE, Method: STANDARD PLATE) “active; positive”. Further, the mutagenic call (Test System: AMES SALMONELLA TYPHIMURIUM, Strain/Indicator: TA104, Metabolic Activation: NONE, Method: STANDARD PLATE) is “inactive; negative”; the mutagenic call (Test System: AMES SALMONELLA TYPHIMURIUM, Strain/Indicator: TA2638, Metabolic Activation: NONE, Method: STANDARD PLATE) was “active; positive”; the mutagenic call (Test System: AMES SALMONELLA TYPHIMURIUM, Strain/Indicator: TA2661, Metabolic Activation: NONE, Method: STANDARD PLATE) is “inactive; negative”; the mutagenic call (Test System: AMES SALMONELLA TYPHIMURIUM, Strain/Indicator: TA2662, Metabolic Activation: NONE, Method: STANDARD PLATE) is “active; positive”; the mutagenic call (Test System: AMES SALMONELLA TYPHIMURIUM, Strain/Indicator: TA2678, Metabolic Activation: NONE, Method: STANDARD PLATE) was “inactive; negative”; the mutagenic call (Test System: CHINESE HAMSTER V-79, Strain/Indicator: V-79 (HPRT)/6-THIOGUANINE, Metabolic Activation: NONE) is “inactive; negative”. The mutagenic call was “inactive; negative” (Test System: MOUSE LYMPHOMA, Strain/Indicator: L5178Y (HPRT)/6-THIOGUANINE, Metabolic Activation: NONE, Method: FLUCTUATION TEST) and “inactive; negative” (Test System: MOUSE LYMPHOMA, Strain/Indicator: L5178Y (TK+/TK-), Metabolic Activation: NONE, Method: FLUCTUATION TEST).

Turning to `CCc1ccnc2ccccc12`, the mutagenic call (Test System: AMES SALMONELLA TYPHIMURIUM, Strain/Indicator: TA100, Metabolic Activation: RAT, LIVER, S-9, Method: PREINCUBATION) was “inactive; negative”.

Regarding `Oc1ccc2[nH]c3ccccc3c2c1`, where the note is “Test System: CHINESE HAMSTER OVARY, Strain/Indicator: CHO-K1-BH4 (HGPRT)/6-THIOGUANINE, Metabolic Activation: RAT, LIVER, S-9, AROCLOR (4%)”, the mutagenic call was “active; positive”.

For `O=C(S)c1ccccc1`, the mutagenic call by setting is: under setting [1], “inactive; negative”; (Test System: AMES SALMONELLA TYPHIMURIUM, Strain/Indicator: TA98, Metabolic Activation: RAT LIVER S-9, PHENOBARBITAL AND BETA-NAPHTHOFLAVONE, Method: PREINCUBATION) “inactive; negative”; under setting [2], “inactive; negative”; (Test System: AMES SALMONELLA TYPHIMURIUM, Strain/Indicator: TA100, Metabolic Activation: RAT LIVER S-9, PHENOBARBITAL AND BETA-NAPHTHOFLAVONE, Method: PREINCUBATION) “inactive; negative”; (Test System: AMES SALMONELLA TYPHIMURIUM, Strain/Indicator: TA102, Metabolic Activation: NONE, Method: PREINCUBATION) “inactive; negative”; (Test System: AMES SALMONELLA TYPHIMURIUM, Strain/Indicator: TA102, Metabolic Activation: RAT LIVER S-9, PHENOBARBITAL AND BETA-NAPHTHOFLAVONE, Method: PREINCUBATION) “inactive; negative”. Also, the mutagenic call was “inactive; negative” (Test System: AMES SALMONELLA TYPHIMURIUM, Strain/Indicator: TA104, Metabolic Activation: NONE, Method: PREINCUBATION); “inactive; negative” (Test System: AMES SALMONELLA TYPHIMURIUM, Strain/Indicator: TA104, Metabolic Activation: RAT LIVER S-9, PHENOBARBITAL AND BETA-NAPHTHOFLAVONE, Method: PREINCUBATION); “inactive; negative” under setting [3]; “inactive; negative” (Test System: AMES SALMONELLA TYPHIMURIUM, Strain/Indicator: TA1535, Metabolic Activation: RAT LIVER S-9, PHENOBARBITAL AND BETA-NAPHTHOFLAVONE, Method: PREINCUBATION); “inactive; negative” under setting [4]; “inactive; negative” (Test System: AMES SALMONELLA TYPHIMURIUM, Strain/Indicator: TA1537, Metabolic Activation: RAT LIVER S-9, PHENOBARBITAL AND BETA-NAPHTHOFLAVONE, Method: PREINCUBATION). For the same molecule, the mutagenic call (Test System: E.COLI, Strain/Indicator: WP2UVRA/PKM101, Metabolic Activation: NONE, Method: PREINCUBATION) was “inactive; negative”; the mutagenic call (Test System: E.COLI, Strain/Indicator: WP2UVRA/PKM101, Metabolic Activation: RAT LIVER S-9, PHENOBARBITAL AND BETA-NAPHTHOFLAVONE, Method: PREINCUBATION) is “inactive; negative”; the mutagenic call (Test System: E.COLI, Strain/Indicator: WP2UVRA, Metabolic Activation: NONE, Method: PREINCUBATION) was “inactive; negative”; the mutagenic call (Test System: E.COLI, Strain/Indicator: WP2UVRA, Metabolic Activation: RAT LIVER S-9, PHENOBARBITAL AND BETA-NAPHTHOFLAVONE, Method: PREINCUBATION) is “inactive; negative”.
